Source: patent US7138486B2, “Insulinotropic hormone derivatives and uses thereof” (The General Hospital Corporation, priority 1986, dated 2006)

Assay: Biological half-life

CC[C@H](C)[C@H](NC(=O)[C@H](Cc1ccccc1)NC(=O)[C@H](CCC(=O)O)NC(=O)[C@H](CCCCN)NC(=O)[C@H](C)NC(=O)[C@H](C)NC(=O)[C@H](CCC(N)=O)NC(=O)CNC(=O)[C@H](CCC(=O)O)NC(=O)[C@H](CC(C)C)NC(=O)[C@H](Cc1ccc(O)cc1)NC(=O)[C@H](CO)NC(=O)[C@H](CO)NC(=O)[C@@H](NC(=O)[C@H](CC(=O)O)NC(=O)[C@H](CO)NC(=O)[C@@H](NC(=O)[C@H](Cc1ccccc1)NC(=O)[C@@H](NC(=O)CNC(=O)[C@H](CCC(=O)O)NC(=O)[C@H](C)NC(=O)[C@H](Cc1cnc[nH]1)NC(=O)[C@H](CCCNC(=N)N)NC(=O)[C@H](CCC(=O)O)NC(=O)[C@H](Cc1ccccc1)NC(=O)[C@H](CCC(=O)O)NC(=O)[C@H](CC(=O)O)NC(=O)[C@@H](N)Cc1cnc[nH]1)[C@@H](C)O)[C@@H](C)O)C(C)C)C(=O)N[C@@H](C)C(=O)N[C@@H](Cc1c[nH]c2ccccc12)C(=O)N[C@@H](CC(C)C)C(=O)N[C@H](C(=O)N[C@@H](CCCCN)C(=O)NCC(=O)N[C@@H](CCCNC(=N)N)C(=O)NCC(=O)O)C(C)C [GLP-1(1-37)]
half-life: 15 to 20 min
